This is an account of results in patent publication US12122763B2, “Substituted piperidines for androgen receptor degradation” (UBIX THERAPEUTICS, INC., priority 2020, dated 2024).

The target of the assay is T1, Androgen Receptor (AR) protein (Homo sapiens, UniProt P10275, T878A).
T1 construct: endogenous in cells; host or cells: LNCaP
Put plainly: Androgen Receptor (AR) protein degradation assay in LNCaP cells, western blotting. The assay is classed as cell-based. The following applies: 20 h; for inhibition at 0.01 µM: 0.01 μM compound; for inhibition at 0.1 µM: 0.1 μM compound; for inhibition at 1 µM: 1 μM compound; for inhibition at 10 µM: 10 μM compound. The essentials:
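AR protein level was detected by western blot (ECL) against GAPDH or β-actin controls, with 8 μg lysate protein loaded per lane after BCA quantification. Lysates came from LNCaP cells exposed to test compound for 20 h, following 3 days of growth in RPMI/10% FBS.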

T1 sequence (P10275 whole entry T878A): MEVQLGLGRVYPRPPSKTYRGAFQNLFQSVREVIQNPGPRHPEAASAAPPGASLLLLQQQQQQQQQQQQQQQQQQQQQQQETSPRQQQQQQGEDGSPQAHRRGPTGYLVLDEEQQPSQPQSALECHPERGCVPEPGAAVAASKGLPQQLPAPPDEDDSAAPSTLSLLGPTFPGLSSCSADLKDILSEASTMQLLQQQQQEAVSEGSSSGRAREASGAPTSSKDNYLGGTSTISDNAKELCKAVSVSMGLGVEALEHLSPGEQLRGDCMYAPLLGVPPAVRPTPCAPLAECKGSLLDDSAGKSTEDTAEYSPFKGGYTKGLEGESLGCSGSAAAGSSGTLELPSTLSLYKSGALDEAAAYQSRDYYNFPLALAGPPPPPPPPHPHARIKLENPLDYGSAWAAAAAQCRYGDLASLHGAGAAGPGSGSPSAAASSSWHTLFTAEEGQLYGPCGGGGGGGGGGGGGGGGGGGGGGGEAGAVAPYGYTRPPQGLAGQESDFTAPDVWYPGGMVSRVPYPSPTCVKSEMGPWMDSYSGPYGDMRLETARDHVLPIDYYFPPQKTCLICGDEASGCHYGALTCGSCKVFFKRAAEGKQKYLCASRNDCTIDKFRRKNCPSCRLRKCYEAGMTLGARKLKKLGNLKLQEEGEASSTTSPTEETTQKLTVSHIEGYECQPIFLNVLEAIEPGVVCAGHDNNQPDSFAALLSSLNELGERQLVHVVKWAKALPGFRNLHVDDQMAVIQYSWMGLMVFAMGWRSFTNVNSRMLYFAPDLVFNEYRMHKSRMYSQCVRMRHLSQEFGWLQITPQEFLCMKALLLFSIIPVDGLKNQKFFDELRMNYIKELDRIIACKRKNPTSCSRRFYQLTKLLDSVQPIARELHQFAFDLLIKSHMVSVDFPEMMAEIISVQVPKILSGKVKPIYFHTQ
T1 sequence (Q96SW2 whole entry partner): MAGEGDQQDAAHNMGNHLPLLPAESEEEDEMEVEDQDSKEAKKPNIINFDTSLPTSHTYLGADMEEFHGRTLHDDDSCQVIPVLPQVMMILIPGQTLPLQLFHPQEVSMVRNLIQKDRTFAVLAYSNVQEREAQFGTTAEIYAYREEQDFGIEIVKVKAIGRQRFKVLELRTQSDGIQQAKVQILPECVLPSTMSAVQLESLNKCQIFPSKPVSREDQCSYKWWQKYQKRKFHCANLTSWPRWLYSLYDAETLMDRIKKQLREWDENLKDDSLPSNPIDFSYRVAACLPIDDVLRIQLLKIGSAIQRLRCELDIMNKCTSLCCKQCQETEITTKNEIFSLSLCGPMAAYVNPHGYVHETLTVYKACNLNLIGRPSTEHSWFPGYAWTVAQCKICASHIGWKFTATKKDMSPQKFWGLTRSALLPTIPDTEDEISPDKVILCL

For the compound `N#Cc1ccc(N2CCC(C(=O)Nc3ccc(N4CCC(CN5CCN(C[C@H]6CCN(c7ccc8c(c7)C(=O)N(C7CCC(=O)NC7=O)C8=O)C6)CC5)CC4)cc3)CC2)cc1C(F)(F)F` (stereo partly drawn) [Example 22, 1-(4-cyano-3-(trifluoromethyl)phenyl)-N-(4-(4-((4-(((3R)-1-(2-(2,6-dioxopiperidin-3-yl)-1,3-dioxoisoindolin-5-yl)pyrrolidin-3-yl)methyl)piperazin-1-yl)methyl)piperidin-1-yl)phenyl)piperidine-4-carboxamide], the inhibition at 0.01 µM was 1%, the inhibition at 0.1 µM is 24% and the inhibition at 1 µM came to 49%.

For the compound `N#Cc1ccc(N2CCN(C(=O)Nc3ccc(N4CCC(CN5CC6(CCN(c7ccc8c(c7)C(=O)N(C7CCC(=O)NC7=O)C8=O)CC6)C5)CC4)nc3)CC2)cc1C(F)(F)F` (centres unmarked) [Example 103, 4-(4-cyano-3-(trifluoromethyl)phenyl)-N-(6-(4-((7-(2-(2,6-dioxopiperidin-3-yl)-1,3-dioxoisoindolin-5-yl)-2,7-diazaspiro[3.5]nonan-2-yl)methyl)piperidin-1-yl)pyridin-3-yl)piperazine-1-carboxamide], the inhibition at 0.01 µM was -9%, the inhibition at 0.1 µM stood at 15%, the inhibition at 1 µM worked out at 44% and the inhibition at 10 µM came to 58%.

In the case of `N#Cc1ccc(N2CCC(C(=O)Nc3ccc(N4CCN(CC5CCN(C(=O)CNc6ccc7c(c6)C(=O)N(C6CCC(=O)NC6=O)C7=O)CC5)CC4)cn3)CC2)cc1C(F)(F)F` (centres unmarked) [Example 130, 1-(4-cyano-3-(trifluoromethyl)phenyl)-N-(5-(4-((1-((2-(2,6-dioxopiperidin-3-yl)-1,3-dioxoisoindolin-5-yl)glycyl)piperidin-4-yl)methyl)piperazin-1-yl)pyridin-2-yl)piperidine-4-carboxamide], the inhibition at 0.01 µM stood at 78%, the inhibition at 0.1 µM worked out at 95%, the inhibition at 1 µM came out at 95% and the inhibition at 10 µM stood at 93%.

On to `CC1(CN2CCC(COc3ccc(NC(=O)C4CCN(c5ccc(C#N)c(C(F)(F)F)c5)CC4)nc3)CC2)CN(c2ccc3c(c2)C(=O)N(C2CCC(=O)NC2=O)C3=O)C1` (centres unmarked) [Example 184, 1-(4-cyano-3-(trifluoromethyl)phenyl)-N-(5-((1-((1-(2-(2,6-dioxopiperidin-3-yl)-1,3-dioxoisoindolin-5-yl)-3-methylazetidin-3-yl)methyl)piperidin-4-yl)methoxy)pyridin-2-yl)piperidine-4-carboxamide], for which the inhibition at 0.01 µM turned out to be 72%, the inhibition at 0.1 µM is 91% and the inhibition at 1 µM was 97%.

Take `C[C@@H]1CN(C2CCN(c3ccc4c(n3)CN(C3CCC(=O)NC3=O)C4=O)CC2)CCN1CC1CCN(c2ccc(NC(=O)C3CCN(c4ccc(C#N)c(C(F)(F)F)c4)CC3)nc2)CC1` (stereo partly drawn) [Example 43, 1-(4-cyano-3-(trifluoromethyl)phenyl)-N-(5-(4-(((2R)-4-(1-(6-(2,6-dioxopiperidin-3-yl)-5-oxo-6,7-dihydro-5H-pyrrolo[3,4-b]pyridin-2-yl)piperidin-4-yl)-2-methylpiperazin-1-yl)methyl)piperidin-1-yl)pyridin-2-yl)piperidine-4-carboxamide]: the inhibition at 0.01 µM is 68%, the inhibition at 0.1 µM was determined as 94% and the inhibition at 1 µM came to 83%.

Turning to `N#Cc1ccc(N2CCC(C(=O)Nc3ccc(CCN4CCC(Oc5ccc6c(c5)C(=O)N(C5CCC(=O)NC5=O)C6=O)CC4)cn3)CC2)cc1C(F)(F)F` (centres unmarked) [Example 167, 1-(4-cyano-3-(trifluoromethyl)phenyl)-N-(5-(2-(4-((2-(2,6-dioxopiperidin-3-yl)-1,3-dioxoisoindolin-5-yl)oxy)piperidin-1-yl)ethyl)pyridin-2-yl)piperidine-4-carboxamide], the inhibition at 0.01 µM came to 25%, the inhibition at 0.1 µM turned out to be 67% and the inhibition at 1 µM was 85%.

Take `N#Cc1ncc(N2CCC(C(=O)Nc3ccc(N4CCC(CN5CCN(CC6CCN(c7ccc8c(c7)CN(C7CCC(=O)NC7=O)C8=O)CC6)CC5)CC4)cn3)CC2)cc1C(F)(F)F` (centres unmarked) [Example 145, 1-(6-cyano-5-(trifluoromethyl)pyridin-3-yl)-N-(5-(4-((4-((1-(2-(2,6-dioxopiperidin-3-yl)-1-oxoisoindolin-5-yl)piperidin-4-yl)methyl)piperazin-1-yl)methyl)piperidin-1-yl)pyridin-2-yl)piperidine-4-carboxamide]: the inhibition at 0.01 µM was 20%, the inhibition at 0.1 µM amounted to 84% and the inhibition at 1 µM worked out at 88%.

Take `C[C@@H]1CN(C2CN(c3ccc4c(c3)C(=O)N(C3CCC(=O)NC3=O)C4=O)C2)CCN1CC1CCN(c2ccc(NC(=O)C3CCN(c4ccc(C#N)c(C(F)(F)F)c4)CC3)nc2)CC1` (stereo partly drawn) [Example 41, 1-(4-cyano-3-(trifluoromethyl)phenyl)-N-(5-(4-(((2R)-4-(1-(2-(2,6-dioxopiperidin-3-yl)-1,3-dioxoisoindolin-5-yl)azetidin-3-yl)-2-methylpiperazin-1-yl)methyl)piperidin-1-yl)pyridin-2-yl)piperidine-4-carboxamide]: the inhibition at 0.01 µM amounted to 62%, the inhibition at 0.1 µM was found to be 93% and the inhibition at 1 µM is 86%.

Take `N#Cc1ccc(N2CCC(C(=O)Nc3ccc(N4CCC(CN5CC[C@H](CN6CCN(c7ccc8c(c7)C(=O)N(C7CCC(=O)NC7=O)C8=O)CC6)C5)CC4)cn3)CC2)cc1C(F)(F)F` (stereo partly drawn) [Example 82, 1-(4-cyano-3-(trifluoromethyl)phenyl)-N-(5-(4-(((3S)-3-((4-(2-(2,6-dioxopiperidin-3-yl)-1,3-dioxoisoindolin-5-yl)piperazin-1-yl)methyl)pyrrolidin-1-yl)methyl)piperidin-1-yl)pyridin-2-yl)piperidine-4-carboxamide]: the inhibition at 0.01 µM turned out to be 33%, the inhibition at 0.1 µM is 87% and the inhibition at 1 µM worked out at 95%.

Consider `N#Cc1ccc(N2CCC(C(=O)Nc3ccc(N4CCC(CN5CCN(Cc6ccc7c(c6)C(=O)N(C6CCC(=O)NC6=O)C7=O)CC5)CC4)cn3)CC2)cc1C(F)(F)F` (centres unmarked) [Example 4, 1-(4-cyano-3-(trifluoromethyl)phenyl)-N-(5-(4-((4-((2-(2,6-dioxopiperidin-3-yl)-1,3-dioxoisoindolin-5-yl)methyl)piperazin-1-yl)methyl)piperidin-1-yl)pyridin-2-yl)piperidine-4-carboxamide], for which the inhibition at 0.01 µM is 24%, the inhibition at 0.1 µM worked out at 86% and the inhibition at 1 µM amounted to 96%.

Take `CC1(CN2CCC(COc3ccc4c(c3)C(=O)N(C3CCC(=O)NC3=O)C4=O)CC2)CN(c2ccc(NC(=O)C3CCN(c4ccc(C#N)c(C(F)(F)F)c4)CC3)nc2)C1` (centres unmarked) [Example 180, 1-(4-cyano-3-(trifluoromethyl)phenyl)-N-(5-(3-((4-(((2-(2,6-dioxopiperidin-3-yl)-1,3-dioxoisoindolin-5-yl)oxy)methyl)piperidin-1-yl)methyl)-3-methylazetidin-1-yl)pyridin-2-yl)piperidine-4-carboxamide]: the inhibition at 0.01 µM was 36%, the inhibition at 0.1 µM is 97% and the inhibition at 1 µM was 98%.

`N#Cc1ccc(N2CCC(C(=O)Nc3ccc(N4CCN(CCC5CCN(c6ccc7c(c6)C(=O)N(C6CCC(=O)NC6=O)C7=O)CC5)CC4)cn3)CC2)cc1Cl` (centres unmarked) [Example 120, 1-(3-chloro-4-cyanophenyl)-N-(5-(4-(2-(1-(2-(2,6-dioxopiperidin-3-yl)-1,3-dioxoisoindolin-5-yl)piperidin-4-yl)ethyl)piperazin-1-yl)pyridin-2-yl)piperidine-4-carboxamide]: the inhibition at 0.01 µM turned out to be 0%, the inhibition at 0.1 µM was 88% and the inhibition at 1 µM worked out at 96%.

For `N#Cc1ccc(N2CCC(C(=O)Nc3ccc(OC4CN(CC5CCN(c6ccc7c(c6)C(=O)N(C6CCC(=O)NC6=O)C7=O)CC5)C4)cn3)CC2)cc1C(F)(F)F` (centres unmarked) [Example 173, 1-(4-cyano-3-(trifluoromethyl)phenyl)-N-(5-((1-((1-(2-(2,6-dioxopiperidin-3-yl)-1,3-dioxoisoindolin-5-yl)piperidin-4-yl)methyl)azetidin-3-yl)oxy)pyridin-2-yl)piperidine-4-carboxamide], the inhibition at 0.01 µM came to 58%, the inhibition at 0.1 µM turned out to be 90% and the inhibition at 1 µM was 92%.

In the case of `N#Cc1ccc(N2CCC(C(=O)Nc3ncc(N4CCC(CN5CCN(C[C@H]6CCN(c7ccc8c(c7)C(=O)N(C7CCC(=O)NC7=O)C8=O)C6)CC5)CC4)cn3)CC2)cc1C(F)(F)F` (stereo partly drawn) [Example 158, 1-(4-cyano-3-(trifluoromethyl)phenyl)-N-(5-(4-((4-(((3R)-1-(2-(2,6-dioxopiperidin-3-yl)-1,3-dioxoisoindolin-5-yl)pyrrolidin-3-yl)methyl)piperazin-1-yl)methyl)piperidin-1-yl)pyrimidin-2-yl)piperidine-4-carboxamide], the inhibition at 0.01 µM was -7%, the inhibition at 0.1 µM is 27% and the inhibition at 1 µM turned out to be 65%.

`N#Cc1ccc(N2CCC(C(=O)Nc3ccc(N4CCC(CCN5CCN(c6ccc7c(c6)C(=O)N(C6CCC(=O)NC6=O)C7=O)CC5)CC4)cn3)CC2)cc1C(F)(F)F` (centres unmarked) [Example 86, 1-(4-cyano-3-(trifluoromethyl)phenyl)-N-(5-(4-(2-(4-(2-(2,6-dioxopiperidin-3-yl)-1,3-dioxoisoindolin-5-yl)piperazin-1-yl)ethyl)piperidin-1-yl)pyridin-2-yl)piperidine-4-carboxamide]: the inhibition at 0.01 µM stood at 65%, the inhibition at 0.1 µM was found to be 94% and the inhibition at 1 µM was found to be 96%.

Take `N#Cc1ccc(N2CCC(C(=O)Nc3ccc(N4CCC(CN5CCN(C6CN(c7ccc8c(n7)CN(C7CCC(=O)NC7=O)C8=O)C6)CC5)CC4)cn3)CC2)cc1C(F)(F)F` (centres unmarked) [Example 33, 1-(4-cyano-3-(trifluoromethyl)phenyl)-N-(5-(4-((4-(1-(6-(2,6-dioxopiperidin-3-yl)-5-oxo-6,7-dihydro-5H-pyrrolo[3,4-b]pyridin-2-yl)azetidin-3-yl)piperazin-1-yl)methyl)piperidin-1-yl)pyridin-2-yl)piperidine-4-carboxamide]: the inhibition at 0.01 µM stood at 54%, the inhibition at 0.1 µM was 90% and the inhibition at 1 µM was 72%.
